In patent publication US9943501B2 (KOJUN JAPAN CO., LTD., priority 2014, dated 2018):
“Also recorded” adds a separate entry of the source.

What was measured:
[1] = molecular target: T1, human-derived PPARγ ligand-binding domain (Homo sapiens, UniProt P37231); assay: PPARγ activation test (GAL4 chimera / luciferase reporter in CV-1 cells); format: cell-based; conditions: for PPARγ ligand activity, ratio (%) of the activity of each synthesized product to the activity of the control substance (DMSO): control = 100
T1 construct: expressed in transfected cells; host or cells: CV-1 cells (African green monkey kidney-derived)
T1 sequence (P37231 238-503 limits assumed): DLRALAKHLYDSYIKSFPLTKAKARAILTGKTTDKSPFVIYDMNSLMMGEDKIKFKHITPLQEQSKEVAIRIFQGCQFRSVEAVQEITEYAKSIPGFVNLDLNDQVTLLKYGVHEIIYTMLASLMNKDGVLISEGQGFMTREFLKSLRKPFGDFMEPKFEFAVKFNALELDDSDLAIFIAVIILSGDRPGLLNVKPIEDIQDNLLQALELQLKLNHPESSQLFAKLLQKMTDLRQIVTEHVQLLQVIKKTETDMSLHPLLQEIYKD
Procedure: A measurement method for the PPAR activation test in Examples below were conducted as described below.
(1) PPARγ Activation Test
A plasmid pM-PPARγ for the expression of a chimeric protein composed of a human-derived PPARγ ligand-binding domain and a DNA-binding domain of a yeast-derived GAL4 transcription factor, and a plasmid p4×UASg-tk-luc containing a Cypridina-derived luciferase structural gene linked downstream of a GAL4 responsive sequence designed such that its expression was controlled by this chimeric protein, were prepared. Also, a Renilla-derived luciferase expression plasmid pRL-CMV having a viral expression promoter for constitutive intracellular expression was prepared as a plasmid for the correction of transfection efficiency. On the other hand, DMEM containing 10% FBS was used as a medium for CV-1 cells (African green monkey kidney-derived). The CV-1 cells were seeded at 4.5×10^5 cells over a 100-mm Petri dish and cultured in an incubator at 37° C. in a 5% CO2 environment.
(1-2) Transformation of CV-1 Cell
The CV-1 cells thus cultured for 24 hours were cotransfected with 2.0 μg of pM-PPARγ, 4.0 μg of p4×UASg-tk-luc, and 0.04 μg of pRL-CMV to transform the CV-1 cells. The transformation was carried out by the liposome method using LipofectAMINE(R) Reagent (a product of Invitrogen Corp.). After the transformation operation, the cells were cultured at 37° C. for 3.5 hours in a 5% CO2 environment.
(1-3) Addition of Test Sample
The CV-1 cells thus incubated were recovered by trypsin treatment, and […] thereof was inoculated at a concentration of 1×10^5 cells/mL to a 96-well plate. Each test sample was diluted with DMEM containing 4% FBS to adjust its concentration to twice the final concentration, and […] thereof was added to the 96-well plate mentioned above. DMSO was used as a control substance. After the addition of the test sample or the control substance (DMSO), the mixture was incubated at 37° C. for 24 hours in a 5% CO2 environment.
(1-4) Measurement of Luciferase Activity
The luciferase activity was measured using Dual-Luciferase(R) Reporter Assay System (a product of Promega K.K.). The culture solution was removed from the 96-well plate. The cells were washed with PBS(−), and moisture was removed therefrom using a paper towel. To the cells, […] of a cell lysis solution (Passive Lysis Buffer) was added, and the 96-well plate was shaken for 15 minutes. The cell extract was transferred at […] to a 96-well luminoplate. A luminescent substrate solution was added thereto at […]. The luminescence intensity based on the luciferase was measured for a measurement time set to 10 seconds using a luminometer (Micro Lumat Plus, a product of Berthold Japan Co., Ltd.).
The PPARγ-activating effect of the test sample was evaluated on the basis of a ratio (%) relative to controls. In order to correct transfection efficiency, the measured Cypridina luciferase activity value (A) was divided by the measured Renilla luciferase activity value (B) to determine a value (A/B). The average A/B value of the control group was calculated and defined as 100. The A/B value of the test sample was calculated, and the ratio (%) of this value to the average value of the controls was used as the ability of the test sample to activate PPARγ.
Their PPARγ ligand activity was measured in the same way as in Example 7 except that the incubation time after the test sample addition was set to 48 hours. The values shown in the table below and the ordinate of the drawing depict the ratio (%) of the activity of each synthesized product to the activity of the control substance (DMSO). In Table 1 and FIG. 13, these various butenolide compounds used as test samples were each indicated by the functional group of R^2 in the formula (1).

UCP-1 gene = assay: Measurement of UCP-1 gene expression level in mesenchymal cell line 10T1/2; format: cell-based; conditions: 10T1/2 cells; 100 μg/mL; 24 hours; FIG. 11
From the text: Mitochondrial uncoupling proteins (or uncoupling proteins: UCPs) have the function of uncoupling oxidative phosphorylation reaction in the mitochondrial inner membrane to consume the energy as heat. Among them, UCP-1 is specifically expressed in brown fat cells that produce heat by burning fat. In recent years, particular synthetic PPARγ agonists have been reported to convert white fat cells working to store fat to brown fat cells working to burn fat (H. Ohno et al, Cell metabolism, 2012, Vol. 15, pp. 395-404).
The test was conducted as follows: a mesenchymal cell line 10T1/2 was inoculated at 1×10^4 cells/mL to a 12-well plate. The cells were cultured until confluent. Then, the fraction of peak 5 (5H4PB) was added thereto such that its final concentration was 100 μg/mL. DMSO was used as a control substance. Twenty-four hours after the sample addition, mRNA was recovered from the cells, and the mRNA level was determined. The mRNA quantification was carried out using LightCycler(R) (Roche Applied Science). The ordinate of the drawing depicts the ratio of the UCP-1 expression level for the fraction of peak 5 to the UCP-1 expression level for the control substance (DMSO). […] The increased expression level of UCP-1 indicates enhanced heat production from lipids.

[2] = test system: liver (hepatocytes) of C57BL/6J mice fed with a high-fat diet; assay: Influence of administration on liver tissue (histopathological examination); format: in vivo, mouse; conditions: 12 weeks, high-fat diet
From the text: In Example 13, the liver was collected during the collection of fat tissues from each individual and histopathologically examined. The findings from the histopathological examination were as described below.
For the individuals of the normal group, the deposition of fat droplets was not observed in the hepatocytes, whereas only the very mild infiltration of inflammatory cells was observed.

[3] = test sample concentration 0.032 μg/mL, incubation 48 hours
[4] = test sample concentration 0.08 μg/mL, incubation 48 hours
[5] = test sample concentration 0.16 μg/mL, incubation 48 hours
[6] = test sample concentration 0.4 μg/mL, incubation 48 hours
[7] = test sample concentration 0.8 μg/mL, incubation 48 hours, * = twice or more vs control, p<0.05
[8] = test sample concentration 2 μg/mL, incubation 48 hours, * = twice or more vs control, p<0.05
[9] = test sample concentration 4 μg/mL, incubation 48 hours, * = twice or more vs control, p<0.05

Compound | PPARγ ligand activity of butenolide compounds (in words) ([1]; Example 8, incubation 48 hours, Table 1 and FIG. 13, listed as 5-hydroxy-4-(4-methylphenyl)butenolide) | PPARγ ligand activity, ratio (%) of the activity of each synthesized product to the activity of the control substance (DMSO) [1, 3] [%] | PPARγ ligand activity, ratio (%) of the activity of each synthesized product to the activity of the control substance (DMSO) [1, 4] [%] | PPARγ ligand activity, ratio (%) of the activity of each synthesized product to the activity of the control substance (DMSO) [1, 5] [%] | PPARγ ligand activity, ratio (%) of the activity of each synthesized product to the activity of the control substance (DMSO) [1, 6] [%] | PPARγ ligand activity, ratio (%) of the activity of each synthesized product to the activity of the control substance (DMSO) [1, 7] | PPARγ ligand activity, ratio (%) of the activity of each synthesized product to the activity of the control substance (DMSO) [1, 8] | PPARγ ligand activity, ratio (%) of the activity of each synthesized product to the activity of the control substance (DMSO) [1, 9] | expression level of UCP-1 (mRNA) relative to control substance (DMSO) (UCP-1 gene) | PPARγ ligand activity of the fraction of peak 5 ([1]; 50 μg/mL and 100 μg/mL, FIG. 9) | PPARγ ligand activity of peak fractions ([1]; final concentration 100 μg/mL, FIG. 7) | PPARγ ligand activity, ratio (%) of the activity of each synthesized product to the activity of the control substance (DMSO) ([1]; test sample concentration 10 μg/mL, incubation 48 hours, * = twice or more vs control, p<0.05) | PPARγ ligand activity, ratio (%) of the activity of each synthesized product to the activity of the control substance (DMSO) ([1]; test sample concentration 20 μg/mL, incubation 48 hours, * = twice or more vs control, p<0.05) | deposition of fat droplets in the hepatocytes ([2]; 0.037 μg/kg/day) | deposition of fat droplets in the hepatocytes ([2]; 10 mg/kg/day) | swelling of hepatocytes ([2]; 10 mg/kg/day)
Cc1ccc(C2=CC(=O)OC2O)cc1 (stereo not drawn) | high activity in a low concentration range; also recorded: highest activity | 170 | 110 | 120 | 180 | 260* % | 560* % | 710* % | – | – | – | – | – | – | – | –
O=C1C=C(c2ccccc2)C(O)O1 (single isomer, unassigned) [5H4PB, 5-hydroxy-4-phenylbutenolide] | – | – | – | – | – | – | – | – | effect of elevating the expression level of UCP-1 | elevate in a concentration-dependent manner | distinct PPARγ ligand activity | – | – | – | – | –
O=C1C=C(Cc2ccccc2)C(O)O1 (stereo not drawn) [Benzyl, 5-hydroxy-4-benzylbutenolide] | – | 120 | 220 | 110 | 130 | 170% | 310* % | 360* % | – | – | – | – | – | – | – | –
Cc1ccc(CC2=CC(=O)OC2O)cc1 (stereo not drawn) [Methylbenzyl, 5-hydroxy-4-(4-methylbenzyl)butenolide] | – | 130 | 110 | 120 | 130 | 140% | 130% | 240* % | – | – | – | 340* % | 520* % | – | – | –
CN(CCOc1ccc(CC2SC(=O)NC2=O)cc1)c1ccccn1 (stereo not drawn) [rosiglitazone, reference compound] | – | – | – | – | – | – | – | – | – | – | – | – | – | very mild to mild depositions | moderate deposition | mildly swollen
